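Test compounds were applied to cells in 96-well plates for 48 hours at 5 doses. The concentration for 50% growth inhibition is given as GI50. TGI: total growth inhibition.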
Columns and labels:
Test in all cases: NCI-60 cell line screen, 48 h
SR leukemia = test system: SR leukemia
UACC-62 melanoma = test system: UACC-62 melanoma
EKVX NSCLC = test system: EKVX NSCLC
SK-OV-3 ovarian = test system: SK-OV-3 ovarian
HCT-15 colon = test system: HCT-15 colon
SN12C renal = test system: SN12C renal
MOLT-4 leukemia = test system: MOLT-4 leukemia
NCI-H226 lung = test system: NCI-H226 lung
TK-10 renal = test system: TK-10 renal
LOX IMVI melanoma = test system: LOX IMVI melanoma
NCI-H522 lung = test system: NCI-H522 lung
SW-620 colon = test system: SW-620 colon
KM12 colon = test system: KM12 colon
CCRF-CEM leukemia = test system: CCRF-CEM leukemia
ACHN renal = test system: ACHN renal
CAKI-1 renal = test system: CAKI-1 renal
SF-268 CNS = test system: SF-268 CNS
SF-539 CNS = test system: SF-539 CNS
UO-31 renal = test system: UO-31 renal
HOP-92 NSCLC = test system: HOP-92 NSCLC
HCT-116 colon = test system: HCT-116 colon
M14 melanoma = test system: M14 melanoma
SK-MEL-5 melanoma = test system: SK-MEL-5 melanoma
OVCAR-5 ovarian = test system: OVCAR-5 ovarian
SK-MEL-2 melanoma = test system: SK-MEL-2 melanoma
SF-295 CNS = test system: SF-295 CNS
COLO 205 colon = test system: COLO 205 colon
HS 578T breast = test system: HS 578T breast
HCC-2998 colon = test system: HCC-2998 colon
OVCAR-8 ovarian = test system: OVCAR-8 ovarian
PC-3 prostate = test system: PC-3 prostate
A498 renal = test system: A498 renal
HOP-62 NSCLC = test system: HOP-62 NSCLC
NCI-H460 lung = test system: NCI-H460 lung
K-562 leukemia = test system: K-562 leukemia
A549 NSCLC = test system: A549 NSCLC
IGROV1 ovarian = test system: IGROV1 ovarian
T-47D breast = test system: T-47D breast
OVCAR-4 ovarian = test system: OVCAR-4 ovarian
OVCAR-3 ovarian = test system: OVCAR-3 ovarian
NCI-H23 lung = test system: NCI-H23 lung
RPMI-8226 leukemia = test system: RPMI-8226 leukemia
U251 CNS = test system: U251 CNS
MCF7 breast = test system: MCF7 breast
MDA-MB-231 breast = test system: MDA-MB-231 breast
NCI/ADR-RES ovarian = test system: NCI/ADR-RES ovarian
BT-549 breast = test system: BT-549 breast
SNB-19 CNS = test system: SNB-19 CNS
786-0 renal = test system: 786-0 renal
UACC-257 melanoma = test system: UACC-257 melanoma
DU-145 prostate = test system: DU-145 prostate
RXF 393 renal = test system: RXF 393 renal
MDA-MB-435 = test system: MDA-MB-435
MALME-3M melanoma = test system: MALME-3M melanoma
SK-MEL-28 melanoma = test system: SK-MEL-28 melanoma
HT29 colon = test system: HT29 colon

`C=C1C(O)C2CC(C)(CO)C(=O)C2=C(CC(C)C)C12CC2` (configuration not stated) was tested, and the GI50 (SR leukemia) was 40.8 µM, the TGI (SR leukemia) was over 100 µM and the GI50 (UACC-62 melanoma) was 78.6 µM. It also gave a TGI (UACC-62 melanoma) of over 100 µM, a GI50 (EKVX NSCLC) of 69.5 µM and a TGI (EKVX NSCLC) of over 100 µM. For the same molecule, the GI50 (SK-OV-3 ovarian) was over 100 µM, the TGI (SK-OV-3 ovarian) was over 100 µM and the GI50 (HCT-15 colon) was 82.3 µM. It also gave a TGI (HCT-15 colon) of over 100 µM, a GI50 (SN12C renal) of over 100 µM and a TGI (SN12C renal) of over 100 µM. It also gave a GI50 (MOLT-4 leukemia) of 81.8 µM, a TGI (MOLT-4 leukemia) of over 100 µM and a GI50 (NCI-H226 lung) of over 100 µM. It also gave a TGI (NCI-H226 lung) of over 100 µM, a GI50 (TK-10 renal) of 52.9 µM and a TGI (TK-10 renal) of over 100 µM. The GI50 (LOX IMVI melanoma) was 57.9 µM, the TGI (LOX IMVI melanoma) was over 100 µM and the GI50 (NCI-H522 lung) was 68.4 µM. The TGI (NCI-H522 lung) was over 100 µM, the GI50 (SW-620 colon) was 62.3 µM and the TGI (SW-620 colon) was over 100 µM. The GI50 (KM12 colon) was 50.6 µM, the TGI (KM12 colon) was over 100 µM and the GI50 (CCRF-CEM leukemia) was 58 µM. For the same molecule, the TGI (CCRF-CEM leukemia) was over 100 µM, the GI50 (ACHN renal) was 93.8 µM and the TGI (ACHN renal) was over 100 µM. The GI50 (CAKI-1 renal) was 69.6 µM, the TGI (CAKI-1 renal) was over 100 µM and the GI50 (SF-268 CNS) was over 100 µM. The TGI (SF-268 CNS) was over 100 µM, the GI50 (SF-539 CNS) was 51.6 µM and the TGI (SF-539 CNS) was over 100 µM. It also gave a GI50 (UO-31 renal) of over 100 µM, a TGI (UO-31 renal) of over 100 µM and a GI50 (HOP-92 NSCLC) of 94.6 µM. For the same molecule, the TGI (HOP-92 NSCLC) was over 100 µM, the GI50 (HCT-116 colon) was 38.7 µM and the TGI (HCT-116 colon) was over 100 µM. For the same molecule, the GI50 (M14 melanoma) was 92.7 µM, the TGI (M14 melanoma) was over 100 µM and the GI50 (SK-MEL-5 melanoma) was 82.8 µM. The TGI (SK-MEL-5 melanoma) was over 100 µM, the GI50 (OVCAR-5 ovarian) was over 100 µM and the TGI (OVCAR-5 ovarian) was over 100 µM. The GI50 (SK-MEL-2 melanoma) was over 100 µM, the TGI (SK-MEL-2 melanoma) was over 100 µM and the GI50 (SF-295 CNS) was 57.1 µM. It also gave a TGI (SF-295 CNS) of over 100 µM, a GI50 (COLO 205 colon) of over 100 µM and a TGI (COLO 205 colon) of over 100 µM. It also gave a GI50 (HS 578T breast) of over 100 µM, a TGI (HS 578T breast) of over 100 µM and a GI50 (HCC-2998 colon) of over 100 µM. It also gave a TGI (HCC-2998 colon) of over 100 µM, a GI50 (OVCAR-8 ovarian) of 77.8 µM and a TGI (OVCAR-8 ovarian) of over 100 µM. It also gave a GI50 (PC-3 prostate) of 56 µM, a TGI (PC-3 prostate) of over 100 µM and a GI50 (A498 renal) of over 100 µM. For the same molecule, the TGI (A498 renal) was over 100 µM, the GI50 (HOP-62 NSCLC) was over 100 µM and the TGI (HOP-62 NSCLC) was over 100 µM. It also gave a GI50 (NCI-H460 lung) of 67 µM, a TGI (NCI-H460 lung) of over 100 µM and a GI50 (K-562 leukemia) of 31.9 µM. It also gave a TGI (K-562 leukemia) of over 100 µM, a GI50 (A549 NSCLC) of 59.8 µM and a TGI (A549 NSCLC) of over 100 µM. It also gave a GI50 (IGROV1 ovarian) of over 100 µM, a TGI (IGROV1 ovarian) of over 100 µM and a GI50 (T-47D breast) of over 100 µM. The TGI (T-47D breast) was over 100 µM, the GI50 (OVCAR-4 ovarian) was over 100 µM and the TGI (OVCAR-4 ovarian) was over 100 µM. For the same molecule, the GI50 (OVCAR-3 ovarian) was 36.5 µM, the TGI (OVCAR-3 ovarian) was 92.4 µM and the GI50 (NCI-H23 lung) was over 100 µM. The TGI (NCI-H23 lung) was over 100 µM, the GI50 (RPMI-8226 leukemia) was 29.1 µM and the TGI (RPMI-8226 leukemia) was over 100 µM. The GI50 (U251 CNS) was 77 µM, the TGI (U251 CNS) was over 100 µM and the GI50 (MCF7 breast) was 63.9 µM. For the same molecule, the TGI (MCF7 breast) was over 100 µM, the GI50 (MDA-MB-231 breast) was over 100 µM and the TGI (MDA-MB-231 breast) was over 100 µM. The GI50 (NCI/ADR-RES ovarian) was over 100 µM, the TGI (NCI/ADR-RES ovarian) was over 100 µM and the GI50 (BT-549 breast) was over 100 µM. It also gave a TGI (BT-549 breast) of over 100 µM, a GI50 (SNB-19 CNS) of over 100 µM and a TGI (SNB-19 CNS) of over 100 µM. It also gave a GI50 (786-0 renal) of over 100 µM, a TGI (786-0 renal) of over 100 µM and a GI50 (UACC-257 melanoma) of 52.1 µM. The TGI (UACC-257 melanoma) was over 100 µM, the GI50 (DU-145 prostate) was 86.4 µM and the TGI (DU-145 prostate) was over 100 µM. For the same molecule, the GI50 (RXF 393 renal) was over 100 µM, the TGI (RXF 393 renal) was over 100 µM and the GI50 (MDA-MB-435) was 75 µM. The TGI (MDA-MB-435) was over 100 µM, the GI50 (MALME-3M melanoma) was 28.3 µM and the TGI (MALME-3M melanoma) was over 100 µM. It also gave a GI50 (SK-MEL-28 melanoma) of over 100 µM, a TGI (SK-MEL-28 melanoma) of over 100 µM and a GI50 (HT29 colon) of over 100 µM. For the same molecule, the TGI (HT29 colon) was over 100 µM.

From PubChem BioAssay (NCI)
